In US9534008B2, “Small molecule compounds that control plant- and insect-pathogenic nematodes” (California Institute of Technology, priority 2011, dated 2017):
Entries after “also recorded” stand apart in the source; their conditions may differ.

Assays:
[1] = tested on: several of the tested nematode species; test: Retention assay, across species; format: in vivo; settings: 1 nM, 1 μM and 1 mM tested
Experimental: OP50 E. coli was grown on a standard 5 cm agar plate (made with standard Nematode Growth Medium). The bacterial lawn was 16 mm in diameter and was grown overnight at 20° C. before being used in trials. Two 4 mm spots (0.6 μL) were placed on opposite sides of the bacterial lawn (using a transparent template to guide spot placement), and several minutes elapsed for the liquid to settle in before placing nematodes down on the assay. Recording began immediately upon worm placement. 0.6 μL of the control was placed on one side of the lawn, and 0.6 μL of the experimental cue was placed on the other side of the lawn, changing the location of the cue throughout trials between left/right and top/bottom to avoid bias.
Nematodes were isolated by gender at the L4 stage the day before being used in trials as developed adults. Worms were evenly divided and placed at two points equidistant from the foci of the scoring region. Trials were recorded for 20 minutes, and frames were collected for analysis at 1 frame per second. Results were averaged from at least three different trials. For every nematode species in this study, a different total number of worms (using water in both scoring regions) was tested to determine the minimum number of worms necessary for consistent unbiased results over a 20 minute trial. The total number of worms used in the multiple species assays depended on that species' optimal parameters. 10 worms were used for P. redivivus males and females, 20 worms were used for C. elegans males and O. dolichuridae males, and 14 worms were used for S. glaseri males. The Automated Software was used to compare worm occupancy in each scoring region over time, and the Chemotaxis Index (Bargmann et al., Cell 74:515-27 (1993), which is hereby incorporated by reference in its entirety) was adapted to score preference or avoidance to each ascaroside.
A video camera attached to the microscope produced a digital video stream, which was then analyzed. The ratio of the time the average worm spent in each region of interest was calculated for every trial. For ease of implementation, all worms in a single experiment were assumed to be roughly the same size. Thus worm pixels were counted instead of whole worms, allowing fractions of a worm in the region of interest to be taken into account. It also eliminated the need for a shape-based worm identification algorithm, and allowed each frame to be analyzed independently. A band-pass filter was applied to each frame to eliminate the effect of uneven lighting and also accentuate the worms against the background. The worm was then identified after thresholding the filtered image. Throughout each experiment, the locations and sizes of the regions of interest were known. Through the filtering described above, it is known which pixels are occupied by worms and which ones are not. Thus, the ratio of worm-pixels to all pixels inside the region of interest can be calculated to produce the worm-occupancy ratio. This calculation was done for every frame, giving a plot output of worm-occupancy ratio vs. time for each region.

C. elegans [2] = test: Ascaroside function (Table 12), C. elegans; format: in vivo, Caenorhabditis elegans; parameters: key to Attract Females/Herm. / Promote Dauer Formation / Attract Males: A very strong result of affecting nematode behavior is designated in the table as “strong.”
Experimental: (§1) Various ascarosides and ascaroside blends were administered to various nematodes described below (Table 12). […] A very strong result of affecting nematode behavior is designated in the table as “strong.”

Panagrellus redivivus = test: Ascaroside function (Table 12), Panagrellus redivivus; format: in vivo
Experimental: as §1

S. glaseri = test: Ascaroside function (Table 12), S. glaseri; format: in vivo
Experimental: as §1

males = test: Bioassay of HPLC-purified peak; format: in vivo; settings: purified peak with retention time of 9.7 minutes
Experimental: A Thermo Finnigan LCQ Deca XP Max was used with electrospray ionization in positive ion mode in the 50-1000 AMU range. The Thermo Separation spectra HPLC system consisted of a P4000 quaternary pump, an AS 3000 auto sampler, and a UV 6000 diode array detector. The solvents were water with (a) 0.1% formic acid and (b) 90% acetonitrile-10% water with 10 mM ammonium formate. The column temperature was maintained at 60° C. and a solvent flow of 1.0 ml/min. The reversed phase column (PLRP-S Polymeric reversed phase column, 250×4.6 mmid, Varian Inc.) was eluted with a solvent composition starting with 90:10 (a,b) for 2 minutes, followed by a gradient to 5:95 in 20 minutes and an additional 5 minutes at 5:95. Ultraviolet absorption was monitored at 190 and 400 nm. Solvent flow between the ultraviolet detector and mass spectroscopy electrospray interface split 9:1 with a low-volume micro needle P450 splitter valve (Upchurch Scientific, Oak Harbor, Wash.), making it possible to obtain spectra of eluted compounds and simultaneously collect 90% of the injected material for bioassay. […] This was confirmed to be ascr#1 using NMR analysis.

[3] = tested on: C. elegans hermaphrodites and males; test: Spot attraction assay; format: in vivo
Experimental: The spot attraction assays were conducted according to a previously reported method (Pungaliya et al., PNAS 106:7708-13 (2009); Srinivasan et al., Nature 454:1115-18 (2008), which are hereby incorporated by reference in their entirety). For both C. elegans hermaphrodites and males, 50-60 worms were harvested daily at the fourth larval stage (L4) and stored segregatedly by sex at 20° C. overnight, to be used as young adults the following day. For the competition experiments, two conditions were used: 120 nM ascr#3 and 10 nM icas#3 (Condition 1), or 12 μM ascr#3 and 1 μM icas#3 (Condition 2) in water containing 10% ethanol. Aliquots were stored at −20° C. in 20 μL tubes. 10% ethanol in water was used as control.
Attraction assays with hbas#3 were conducted as previously reported (Srinivasan et al., Nature 454:1115-18 (2008); Pungaliya et al., Proc. Natl. Acad. Sci. U.S.A. 106:7708-13 (2009), which are hereby incorporated by reference in their entirety). For the attraction assays, 50-60 hermaphrodite worms were harvested daily at the early fourth larval stage (L4) and stored at 20° C. overnight to be used as young adults the following day. Hbas#3 was dissolved in water containing 10% ethanol. Aliquots were stored at −20° C. in 20 μL tubes. 10% ethanol in water was used as control.

[4] = tested on: C. elegans hermaphrodites; test: Quadrant chemotaxis assay; format: in vivo
Experimental: Chemotaxis to both non-indole and indole ascarosides was assessed on 10 cm four-quadrant petri plates (Wicks et al., Dev. Biol. 221:295-307 (2000), which is hereby incorporated by reference in its entirety). Each quadrant was separated from adjacent ones by plastic spacers (FIG. 1B). Pairs of opposite quadrants were filled with nematode growth medium (NGM) agar containing either indole ascarosides or non-indole ascarosides at different concentrations. Animals were washed gently in a S-basal buffer, placed in the center of a four-quadrant plate with ascarosides in alternating quadrants, and scored after 15 minutes and 30 minutes. A chemotaxis index was calculated as: (the number of animals on ascaroside quadrants minus the number of animals on buffer quadrants)/(total number of animals).
Chemotaxis to hbas#3 was assessed on 10 cm four-quadrant petri plates (Wicks et al., Dev. Biol. 221:295-307 (2000), which is hereby incorporated by reference in its entirety). Each quadrant was separated from adjacent ones by plastic spacers. Pairs of opposite quadrants were filled with nematode growth medium (NGM) agar containing different concentrations of hbas#3. Animals were washed gently in an S-basal buffer and placed in the center of a four-quadrant plate with ascarosides in alternating quadrants, and scored after 15 minutes and 30 minutes. A chemotaxis index was calculated as: (the number of animals on ascaroside quadrants minus the number of animals on buffer quadrants)/(total number of animals).

C. elegans [5] = test: Aggregation assay; format: in vivo
Experimental: Aggregation behavior of worms was measured using assays reported in de Bono & Bargmann, Cell 94:679-89 (1998), which is hereby incorporated by reference in its entirety. Aggregation assays were conducted on standard NGM plates. Plates containing indole ascarosides were made by adding the indole ascaroside stock solution to the NGM media before they were poured onto the plates. These plates were dried at room temperature for 2 to 3 days. Control plates were treated similarly, except that ethanol solutions instead of icas solutions were added to the plates, corresponding to the amount of ethanol introduced via the icas solutions. Final ethanol concentrations of the plates were below 0.1% for all conditions. After drying, both control plates and plates containing indole ascarosides were seeded with 150 μl of an overnight culture of E. coli OP50 using a micropipette, and were allowed to dry for 2 days at room temperature. For “low worm density” experiments, 20 worms were placed onto the lawn and left at 20° C. for 3 hours. For “high worm density” experiments, approximately 120 worms were placed onto the bacterial lawn and left at 20° C. for 3 hours. Aggregation behavior was quantified as the number of animals that were in touch with two or more animals at greater than 50% of their body length.

[6] = tested on: C. elegans hermaphrodites; test: Measurement of locomotory parameters (automated worm-tracking system); format: in vivo
Experimental: Reversal frequency and velocity were measured using an automated worm-tracking system (Pungaliya et al., PNAS 106:7708-13 (2009); Srinivasan et al., Nature 454:1115-18 (2008), which are hereby incorporated by reference in their entirety).

ASK neurons = test: Calcium imaging (G-CaMP), ASK; format: in vivo, C. elegans; settings: 1 pM to 1 μM
From the text: (§2) Transgenic lines that express the genetically encoded Ca^2+ sensor in ASK (kyEx2866) and AIA (kyEx2916) (Macosko et al., Nature 458:1171-75 (2009), which is hereby incorporated by reference in its entirety) were used for calcium imaging. Young adults or adult worms were inserted into an “Olfactory chip” microfluidic device (Chronis et al., Nat. Methods 4:727-31 (2007), which is hereby incorporated by reference in its entirety). Dilutions of icas#3 were done with S-basal buffer (with no cholesterol). As stock solutions of icas#3 contained small amounts of ethanol, equivalent amounts of ethanol were added to the S-basal control flow.
(§3) Imaging was conducted using an inverted Zeiss microscope equipped with an Andor camera. Exposure time for image acquisition was 300 milliseconds. Before imaging the ASK neuron, the worm was exposed to blue light for 3 minutes as ASK responds to the blue light itself. […] Movies were analyzed using custom-made Matlab scripts. The first peak of fluorescence immediately after exposure to buffer or icas#3 was chosen for calculating the average change in fluorescence upon exposure to either buffer or icas#3. The value for this maximum was then subtracted from the mean fluorescence during the 5 seconds before the delivery of icas#3/buffer (corresponding to the region between 5 to 10 seconds in FIG. 2D).

AIA interneurons = test: Calcium imaging (G-CaMP), AIA; format: in vivo, C. elegans; settings: 1 μM icas#3
From the text: as §2, §3

Which results are given for C[C@H](CCCCC(=O)O)O[C@@H]1O[C@@H](C)[C@H](O)C[C@H]1O [ascr#1]?
preference for areas conditioned by ascaroside [1]: preferred; Attract Males (C. elegans [2]): ascr#1; Promote Dauer Formation (C. elegans [2]): ascr#1; Attract Males (Panagrellus redivivus): ascr#1; Attract Males (S. glaseri): ascr#1; activity to males in the bioassay (males): active

Which “attraction after ablation of the RMG interneuron” value ([3]; N2 (wild-type) and ncs-1::gfp hermaphrodites) does the source give for C[C@H](CCCC/C=C/C(=O)O)O[C@@H]1O[C@@H](C)[C@H](OC(=O)c2c[nH]c3ccccc23)C[C@H]1O [icas#3] here?
The value was “does not affect; also recorded: did not affect”.

What about the “attraction after ablation of ASK sensory neurons” value ([3]; hermaphrodites) of the same molecule?
The value was “near complete loss of attraction”.

And the “attraction of both C. elegans sexes” value ([3]; high concentrations, 1 μmol, N2 hermaphrodites and him-5 males)?
Its value is “attractive; also recorded: attracted”.

And the “attraction of AIA-deficient worms” value ([3]; in vivo)?
The value was “did not show any attraction”.

What about the “attraction of daf-22 hermaphrodites” value ([3]; in vivo) of the same molecule?
The value was “attracted; also recorded: as strongly as N2 worms”.

What about the “attraction of social wild-type (RC301, CB4856) and npr-1(ad609) hermaphrodites” value ([3]; in vivo) of the same molecule?
Its value is “attracted; also recorded: strongly attracted”.

What about the attraction of hermaphrodites ([3]; low concentrations, N2 hermaphrodites) of the same molecule?
The attraction of hermaphrodites was “strongly attractive”.

And the “chemotaxis of hermaphrodites from all tested strains” value ([4]; 1 pM icas#3, after 15 minutes)?
Its value is “attracted”.

What about the “chemotaxis of hermaphrodites from all tested strains” value ([4]; 1 μM icas#3, after 30 minutes) of the same molecule?
Its value is “attracted”.

What about the “attraction of social wild-type (RC301, CB4856) and npr-1(ad609) hermaphrodites” value ([4]; in vivo) of the same molecule?
Its value is “strongly attracted”.

What about the “response of daf-22 hermaphrodites” value ([4]; in vivo) of the same molecule?
Its value is “as strongly as N2 worms”.

What about the “concentration resulting in strong attraction of hermaphrodites (as low as)” value ([4]; presence and absence of food) of the same molecule?
The value was at most 1 pM.

What about the “aggregation of daf-22 hermaphrodites versus N2” value (C. elegans [5]; 1 pM icas#3, low worm density) of the same molecule?
The value was “less aggregation than N2 worms”.

And the “aggregation of CB4856” value (C. elegans [5]; 1 nM icas#3, low worm density)?
The value was “not significantly different from the control”.

And the “aggregation of npr-1(ad609) hermaphrodites” value (C. elegans [5]; entire tested concentration range, without drop off, low worm density)?
Its value is “increased aggregation”.

And the “active concentration window (hermaphrodite attraction and aggregation)” value (C. elegans [5]; in vivo)?
The value was “fM-pM; also recorded: femtomolar to low picomolar”.

And the “concentration giving very strong increase in aggregation (as low as)” value (C. elegans [5]; low worm density (20 worms per plate), solitary and social hermaphrodites)?
Its value is at most 10 fM.

And the “aggregation of ASK-ablated hermaphrodites” value (C. elegans [5]; low worm density, any of the tested concentrations)?
The value was “do not aggregate; also recorded: did not aggregate”.

And the “concentration of maximal aggregation, social strain CB4856” value (C. elegans [5]; low worm density, bell-shaped response curve)?
Its value is 1 pM.

And the “aggregation of him-5 males” value (C. elegans [5]; plates containing 100 fM or 100 pM of icas#3)?
Its value is “significantly increased”.

What about the worm velocity ([6]; 1-10 pM icas#3) of the same molecule?
The worm velocity was “not significantly reduced”.

And the mean stopped duration ([6]; aggregation-inducing concentrations, N2 hermaphrodites)?
Its mean stopped duration is “strongly increase”.

What about the “forward velocity of ASK-ablated hermaphrodites” value ([6]; in vivo) of the same molecule?
Its value is “do not display reduced forward velocity”.

And the “reversal frequency of ASK-ablated hermaphrodites” value ([6]; in vivo)?
The value was “does not increase; also recorded: neither increased reversal frequency”.

What about the “Ca2+ transients in ASK neurons” value (ASK neurons) of the same molecule?
Its value is “no detection”.

What about the “G-CaMP fluorescence in AIA interneurons” value (AIA interneurons) of the same molecule?
The value was “induces G-CaMP fluorescence signals; also recorded: significantly increased; also recorded: significant changes”.

What about the “Attract Females/Herm.” value (C. elegans [2]) of the same molecule?
The value was “([strong])”.

What about the “Attract Males” value (C. elegans [2]) of the same molecule?
Its value is “([strong])”.
